Data reported in US11578074B2, “Nitrogenous heterocyclic compound, preparation method, intermediate, composition, and application” (SHANGHAI PHARMACEUTICALS HOLDING CO., LTD., priority 2017, dated 2023).
Read-outs that look alike come from different tables or passages of the source.

Assays:
[1] = molecular target: T1, ErbB2 kinase (Homo sapiens, UniProt P04626); assay: EGFR/ErbB2 enzymatic experiment (HTRF kinEASE-TK), ErbB2; type: biochemical; settings: ErbB2 kinase 0.06 ng/μL, ATP 4 μM; read-out: Kinase IC50 (nM) in vitro ErbB2
T1 construct: The final concentration of ErbB2 kinase was 0.06 ng/μL

[2] = molecular target: EGFR kinase (Homo sapiens, UniProt P00533); assay: EGFR/ErbB2 enzymatic experiment (HTRF kinEASE-TK), EGFR; type: biochemical; settings: EGFR kinase 0.06 units/μL, ATP 1.65 μM; read-out: Kinase IC50 (nM) in vitro EGFR
[3] = system: BT-474 (human breast cancer cell); assay: In vitro proliferation inhibition assay of cell lines (CellTiter-Glo), BT-474; type: cell-based; settings: BT-474 cells, 72 hours
Method in brief: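 Cells were exposed to nine compound concentrations in duplicate for 72 h at 37 °C and 5% CO2. Viability was read with CellTiter-Glo reagent after equilibration at room temperature.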

[4] = molecular target: T2, CYP3A4 (Homo sapiens, UniProt P08684); assay: Direct inhibition (DI) of CYP3A4 in human liver microsomes; type: in vitro ADME; settings: human liver microsomes 0.2 mg/mL, 10 μM compound
T2 construct: A system of 100 μL human liver microsomes; from tissue; host or cells: human liver microsomes
Method in brief: (§1)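 Pooled human liver microsomes (0.2 mg/mL) with 1 mM NADPH and 10 μM test compound were incubated for 20 min with a mixed probe-substrate cocktail (midazolam 10 μM, testosterone 100 μM, dextromethorphan 10 μM, diclofenac 20 μM, phenacetin 100 μM, mephenytoin 100 μM). Relative enzyme activity came from metabolite formation versus DMSO control.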

[5] = molecular target: T3, CYP2D6 (Homo sapiens, UniProt P10635); assay: Direct inhibition (DI) of CYP2D6 in human liver microsomes; type: in vitro ADME; settings: probe Dextromethorphan, human liver microsomes 0.2 mg/mL, 10 μM compound, read-out: Direct inhibition (DI) 2D6 (Dextromethorphan)
T3 construct: A system of 100 μL human liver microsomes; from tissue; host or cells: human liver microsomes
Method in brief: as §1

[6] = molecular target: T4, CYP2C9 (Homo sapiens, UniProt P11712); assay: Direct inhibition (DI) of CYP2C9 in human liver microsomes; type: in vitro ADME; settings: probe Diclofenac, human liver microsomes 0.2 mg/mL, 10 μM compound, read-out: Direct inhibition (DI) 2C9 (Diclofenac)
T4 construct: A system of 100 μL human liver microsomes; from tissue; host or cells: human liver microsomes
Method in brief: as §1

[7] = molecular target: T5, CYP1A2 (Homo sapiens, UniProt P05177); assay: Direct inhibition (DI) of CYP1A2 in human liver microsomes; type: in vitro ADME; settings: probe Phenacetin, human liver microsomes 0.2 mg/mL, 10 μM compound, read-out: Direct inhibition (DI) 1A2 (Phenacetin)
T5 construct: A system of 100 μL human liver microsomes; from tissue; host or cells: human liver microsomes
T5 sequence (P05177 1-516): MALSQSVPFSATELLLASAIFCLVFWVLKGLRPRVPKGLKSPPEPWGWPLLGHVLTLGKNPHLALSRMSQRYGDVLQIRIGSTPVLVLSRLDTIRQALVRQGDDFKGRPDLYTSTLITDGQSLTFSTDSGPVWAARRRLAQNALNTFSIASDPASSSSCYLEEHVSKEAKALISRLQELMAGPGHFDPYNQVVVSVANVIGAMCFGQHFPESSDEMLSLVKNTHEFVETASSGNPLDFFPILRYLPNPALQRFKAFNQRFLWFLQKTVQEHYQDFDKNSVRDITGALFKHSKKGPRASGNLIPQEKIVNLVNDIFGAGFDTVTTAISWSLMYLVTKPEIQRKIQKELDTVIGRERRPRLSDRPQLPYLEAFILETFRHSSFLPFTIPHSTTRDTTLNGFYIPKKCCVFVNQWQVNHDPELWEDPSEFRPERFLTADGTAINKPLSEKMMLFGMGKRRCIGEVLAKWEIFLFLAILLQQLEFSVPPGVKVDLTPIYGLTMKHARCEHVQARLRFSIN
Method in brief: as §1

[8] = molecular target: T6, CYP2C19 (Homo sapiens, UniProt P33261); assay: Direct inhibition (DI) of CYP2C19 in human liver microsomes; type: in vitro ADME; settings: probe Mephenytoin, human liver microsomes 0.2 mg/mL, 10 μM compound, read-out: Direct inhibition (DI) 2C19 (Mephenytoin)
T6 construct: A system of 100 μL human liver microsomes; from tissue; host or cells: human liver microsomes
Method in brief: as §1

[9] = probe Midazolam, read-out: Direct inhibition (DI) 3A4 (Midazolam)
[10] = probe Testosterone, read-out: Direct inhibition (DI) 3A4 (testosterone)

T2 sequence (P08684 whole entry): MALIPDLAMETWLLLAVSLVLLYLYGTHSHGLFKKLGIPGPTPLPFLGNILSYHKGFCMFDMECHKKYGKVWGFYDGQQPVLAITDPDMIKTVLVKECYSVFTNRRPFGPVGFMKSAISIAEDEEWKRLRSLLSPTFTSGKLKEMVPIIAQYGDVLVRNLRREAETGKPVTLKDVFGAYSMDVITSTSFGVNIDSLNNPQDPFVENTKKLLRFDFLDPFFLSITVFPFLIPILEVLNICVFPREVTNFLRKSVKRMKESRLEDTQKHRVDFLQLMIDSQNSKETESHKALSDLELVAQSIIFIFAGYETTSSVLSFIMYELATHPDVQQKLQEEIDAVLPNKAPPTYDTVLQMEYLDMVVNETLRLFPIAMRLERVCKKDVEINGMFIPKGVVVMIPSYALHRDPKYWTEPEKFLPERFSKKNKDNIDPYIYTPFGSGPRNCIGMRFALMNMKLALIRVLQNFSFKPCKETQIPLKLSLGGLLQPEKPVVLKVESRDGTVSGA
T3 sequence (P10635 whole entry): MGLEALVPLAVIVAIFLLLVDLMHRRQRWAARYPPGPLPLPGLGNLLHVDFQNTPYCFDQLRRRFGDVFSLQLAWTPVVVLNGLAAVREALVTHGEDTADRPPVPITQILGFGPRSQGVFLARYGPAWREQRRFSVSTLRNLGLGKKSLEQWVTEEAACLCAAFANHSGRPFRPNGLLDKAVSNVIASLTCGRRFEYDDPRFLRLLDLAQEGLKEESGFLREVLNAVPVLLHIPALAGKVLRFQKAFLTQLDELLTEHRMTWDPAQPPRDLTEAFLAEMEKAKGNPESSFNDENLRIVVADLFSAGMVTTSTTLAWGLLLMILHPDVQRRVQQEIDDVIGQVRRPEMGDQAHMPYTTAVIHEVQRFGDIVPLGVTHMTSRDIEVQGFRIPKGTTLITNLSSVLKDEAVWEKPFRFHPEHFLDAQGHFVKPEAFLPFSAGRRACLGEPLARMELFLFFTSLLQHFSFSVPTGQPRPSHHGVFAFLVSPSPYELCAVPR
Chain of EGFR kinase (P00533 25-1210): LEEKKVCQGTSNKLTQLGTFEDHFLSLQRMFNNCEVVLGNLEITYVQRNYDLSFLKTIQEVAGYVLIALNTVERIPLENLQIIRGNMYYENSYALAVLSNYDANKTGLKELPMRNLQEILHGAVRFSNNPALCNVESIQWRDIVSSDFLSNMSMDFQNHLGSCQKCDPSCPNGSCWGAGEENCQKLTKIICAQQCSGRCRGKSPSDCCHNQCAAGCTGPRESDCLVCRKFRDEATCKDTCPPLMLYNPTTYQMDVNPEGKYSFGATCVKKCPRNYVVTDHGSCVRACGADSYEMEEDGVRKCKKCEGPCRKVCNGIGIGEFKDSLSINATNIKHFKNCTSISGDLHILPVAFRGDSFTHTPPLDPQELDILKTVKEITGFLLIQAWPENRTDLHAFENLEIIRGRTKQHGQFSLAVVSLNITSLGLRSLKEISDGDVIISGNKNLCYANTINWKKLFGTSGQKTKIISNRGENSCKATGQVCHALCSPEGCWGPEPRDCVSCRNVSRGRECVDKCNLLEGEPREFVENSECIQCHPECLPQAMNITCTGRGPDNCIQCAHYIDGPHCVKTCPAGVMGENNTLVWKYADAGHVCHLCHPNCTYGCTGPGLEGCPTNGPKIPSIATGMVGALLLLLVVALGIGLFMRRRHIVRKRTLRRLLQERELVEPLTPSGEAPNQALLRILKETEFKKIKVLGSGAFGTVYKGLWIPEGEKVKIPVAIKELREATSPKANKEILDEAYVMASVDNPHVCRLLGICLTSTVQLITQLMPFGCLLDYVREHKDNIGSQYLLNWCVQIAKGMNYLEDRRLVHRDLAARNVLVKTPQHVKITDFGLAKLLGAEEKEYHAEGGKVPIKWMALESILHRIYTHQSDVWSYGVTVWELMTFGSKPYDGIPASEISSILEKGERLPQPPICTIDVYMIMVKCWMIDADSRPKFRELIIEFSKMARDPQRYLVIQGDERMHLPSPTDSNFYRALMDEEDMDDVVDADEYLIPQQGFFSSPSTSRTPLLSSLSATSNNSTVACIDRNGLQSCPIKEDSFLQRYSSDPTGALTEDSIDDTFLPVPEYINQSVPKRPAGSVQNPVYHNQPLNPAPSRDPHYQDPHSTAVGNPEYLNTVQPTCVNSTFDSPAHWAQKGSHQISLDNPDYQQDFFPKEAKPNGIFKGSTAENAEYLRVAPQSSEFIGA
T4 sequence (P11712 whole entry): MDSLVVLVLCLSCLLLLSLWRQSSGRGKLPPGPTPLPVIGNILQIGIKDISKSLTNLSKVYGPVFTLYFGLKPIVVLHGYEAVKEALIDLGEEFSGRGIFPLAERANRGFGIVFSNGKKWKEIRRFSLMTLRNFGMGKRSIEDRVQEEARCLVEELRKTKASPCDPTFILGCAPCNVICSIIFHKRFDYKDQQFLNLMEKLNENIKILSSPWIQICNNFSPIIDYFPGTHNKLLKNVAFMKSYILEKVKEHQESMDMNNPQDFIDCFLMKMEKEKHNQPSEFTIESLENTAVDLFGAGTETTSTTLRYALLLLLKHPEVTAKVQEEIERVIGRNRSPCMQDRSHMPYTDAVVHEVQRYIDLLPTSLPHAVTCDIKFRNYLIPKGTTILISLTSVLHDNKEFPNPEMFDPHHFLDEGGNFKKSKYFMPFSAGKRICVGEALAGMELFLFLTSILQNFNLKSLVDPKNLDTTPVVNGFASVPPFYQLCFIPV
T1 sequence (P04626 23-1255): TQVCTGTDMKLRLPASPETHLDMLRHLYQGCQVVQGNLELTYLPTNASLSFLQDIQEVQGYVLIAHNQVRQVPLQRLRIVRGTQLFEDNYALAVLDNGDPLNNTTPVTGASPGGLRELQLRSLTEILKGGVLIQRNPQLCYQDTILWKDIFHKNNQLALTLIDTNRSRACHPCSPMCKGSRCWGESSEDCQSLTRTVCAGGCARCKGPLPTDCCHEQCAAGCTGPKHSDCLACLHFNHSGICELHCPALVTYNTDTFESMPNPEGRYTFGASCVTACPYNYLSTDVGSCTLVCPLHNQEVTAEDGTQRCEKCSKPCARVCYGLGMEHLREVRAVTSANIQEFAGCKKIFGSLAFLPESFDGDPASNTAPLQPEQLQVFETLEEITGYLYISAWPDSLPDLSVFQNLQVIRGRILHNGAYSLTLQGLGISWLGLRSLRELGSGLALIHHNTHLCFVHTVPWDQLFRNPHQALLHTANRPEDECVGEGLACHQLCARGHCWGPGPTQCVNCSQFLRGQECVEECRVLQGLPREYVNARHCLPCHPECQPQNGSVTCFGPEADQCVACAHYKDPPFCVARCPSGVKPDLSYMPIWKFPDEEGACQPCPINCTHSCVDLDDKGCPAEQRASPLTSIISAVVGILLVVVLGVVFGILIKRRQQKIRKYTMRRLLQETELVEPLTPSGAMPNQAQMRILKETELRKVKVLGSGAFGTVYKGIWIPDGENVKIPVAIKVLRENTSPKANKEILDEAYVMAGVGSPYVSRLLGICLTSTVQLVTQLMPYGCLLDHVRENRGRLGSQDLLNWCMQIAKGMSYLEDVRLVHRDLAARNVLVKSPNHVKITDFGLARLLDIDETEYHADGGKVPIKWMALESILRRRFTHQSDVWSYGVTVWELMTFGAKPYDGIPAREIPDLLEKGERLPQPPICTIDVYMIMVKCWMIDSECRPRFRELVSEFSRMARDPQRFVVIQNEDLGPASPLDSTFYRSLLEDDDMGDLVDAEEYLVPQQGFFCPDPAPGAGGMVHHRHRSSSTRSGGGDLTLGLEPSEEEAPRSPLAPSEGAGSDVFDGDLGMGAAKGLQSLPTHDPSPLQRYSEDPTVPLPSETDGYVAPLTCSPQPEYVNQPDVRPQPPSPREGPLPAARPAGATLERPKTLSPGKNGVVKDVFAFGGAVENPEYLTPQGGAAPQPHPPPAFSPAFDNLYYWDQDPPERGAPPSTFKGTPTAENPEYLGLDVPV
T6 sequence (P33261 whole entry): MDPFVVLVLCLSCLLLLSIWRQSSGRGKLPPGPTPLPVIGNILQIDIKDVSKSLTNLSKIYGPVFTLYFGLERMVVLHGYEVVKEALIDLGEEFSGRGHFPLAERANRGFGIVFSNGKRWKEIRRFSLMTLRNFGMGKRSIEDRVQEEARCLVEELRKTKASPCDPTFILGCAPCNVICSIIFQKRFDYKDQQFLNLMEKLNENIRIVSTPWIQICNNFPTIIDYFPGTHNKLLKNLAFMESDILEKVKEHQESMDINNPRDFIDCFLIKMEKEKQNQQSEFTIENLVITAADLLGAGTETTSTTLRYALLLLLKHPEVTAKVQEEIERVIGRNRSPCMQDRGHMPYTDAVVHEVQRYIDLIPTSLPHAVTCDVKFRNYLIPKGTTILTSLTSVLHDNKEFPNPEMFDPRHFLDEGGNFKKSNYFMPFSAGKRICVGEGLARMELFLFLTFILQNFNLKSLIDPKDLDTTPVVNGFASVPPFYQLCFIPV

| SMILES | IC50 [1] [nM] | IC50 [2] [nM] | IC50 [3] [nM] | inhibition at 20 min, 10 µM [4, 9] [%] | inhibition at 20 min, 10 µM [4, 10] [%] | inhibition at 20 min, 10 µM [5] [%] | inhibition at 20 min, 10 µM [6] [%] | inhibition at 20 min, 10 µM [7] [%] | inhibition at 20 min, 10 µM [8] [%] |
| --- | --- | --- | --- | --- | --- | --- | --- | --- | --- |
| CCOc1cc2ncnc(Nc3ccc(Oc4ccn5ncnc5c4)c(C)c3)c2cc1NC(=O)/C(F)=C/[C@H]1CCCN1C [Final product of Embodiment 45] | 1.8 | 10.5 | 2.1 | 6 | 24 | 39 | < 0 | 8 | 11 |
| CCOc1cc2ncnc(Nc3ccc(Oc4ccn5ncnc5c4)c(C)c3)c2cc1NC(=O)/C=C/[C@H]1CCCN1C [Final product of Embodiment 22, (R,E)-N-(4-((4-([1,2,4]triazolo[1,5-a]pyridin-7-yloxy)-3-methylphenyl)amino)-7-ethoxyquinazolin-6-yl)-3-(1-methylpyrrolidin-2-yl)acrylamide] | 0.37 | 0.8 | 1 | 12 | 32 | 48 | 10 | 14 | 37 |
